Numbering of substitutions follows the chain as printed. Where “and” joins values, the source holds several entries; their conditions need not be identical. Identical values can stand only once.
Assays:
[1] = biological target: T1, V141A mutant mouse 5-HT3ASR (Mus musculus, UniProt P23979, V142A); test: [^3H]granisetron saturation binding, V141A receptor; settings: ± SE
T1 sequence (P23979 24-483 isoform P23979-2 V142A): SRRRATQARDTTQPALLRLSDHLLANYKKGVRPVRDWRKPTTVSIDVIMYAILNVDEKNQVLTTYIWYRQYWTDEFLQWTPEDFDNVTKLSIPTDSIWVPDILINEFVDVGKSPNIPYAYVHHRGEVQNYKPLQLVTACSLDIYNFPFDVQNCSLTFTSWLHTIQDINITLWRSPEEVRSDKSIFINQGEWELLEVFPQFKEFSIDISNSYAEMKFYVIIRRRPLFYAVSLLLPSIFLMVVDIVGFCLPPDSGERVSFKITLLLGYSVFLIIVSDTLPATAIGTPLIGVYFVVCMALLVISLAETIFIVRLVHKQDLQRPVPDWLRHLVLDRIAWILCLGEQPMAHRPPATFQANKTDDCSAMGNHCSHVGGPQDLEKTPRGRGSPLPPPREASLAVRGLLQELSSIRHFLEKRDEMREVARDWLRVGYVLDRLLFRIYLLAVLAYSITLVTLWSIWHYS

[2] = biological target: T2, G147A mutant mouse 5-HT3ASR (Mus musculus, UniProt P23979, G148A); test: [^3H]granisetron saturation binding, G147A receptor
T2 sequence (P23979 24-483 isoform P23979-2 G148A): T1 sequence (P23979 24-483 isoform P23979-2 V142A) with A119V, G125A

[3] = biological target: T3, N151A mutant mouse 5-HT3ASR (Mus musculus, UniProt P23979, N152A); test: [^3H]granisetron saturation binding, N151A receptor; settings: ± SE
T3 sequence (P23979 24-483 isoform P23979-2 N152A): T1 sequence (P23979 24-483 isoform P23979-2 V142A) with A119V, N129A

[4] = biological target: T4, K153A mutant mouse 5-HT3ASR (Mus musculus, UniProt P23979, K154A); test: [^3H]granisetron saturation binding, K153A receptor; settings: ± SE
T4 sequence (P23979 24-483 isoform P23979-2 K154A): T1 sequence (P23979 24-483 isoform P23979-2 V142A) with A119V, K131A

CN1C2CCCC1CC(NC(=O)c1nn(C)c3ccccc13)C2 (stereo not shown) [[^3H]granisetron]
Bmax [1]: 0.32 ± .04 pmol/mg protein
Hill coefficient (n) [1]: 1.3 ± 0.22
binding of [^3H]granisetron [2]: No detectable binding
Bmax [3]: 4.9 ± 1.1 pmol/mg protein
Hill coefficient (n) [3]: 1.66 ± 0.16
Bmax [4]: 0.30 pmol/mg protein and 0.30 ± .08 pmol/mg protein
Hill coefficient (n) [4]: 1.51 ± 0.17
